Results taken from US20130065818A1, “Arylamide Compounds And Compositions And Uses Thereof” (POLYMEDIX, priority 2006, published 2013).
Where “and” joins values, the source holds several entries; their conditions need not be identical. Equal entries are not always repeated.

Columns and labels:
[1] = test system: fluoroquinolone-resistant, methicillin-resistant Staphylococcus aureus (K950); experiment: NZW rabbit keratitis model, corneal colony counts; format: in vivo; conditions: for Corneal colony count, Mean / Corneal colony count, Median / Corneal colony count, TrMean: N=3; for Corneal colony count, log / Corneal colony count: individual corneas; for Corneal colony count: Inoculum = 1048 cfu/cornea, 1 hour after final drop; for Log10 CFU/ml, group comparison (Duncan Multiple Comparisons Test): P = 0.05, < = significantly fewer colony counts
From the text: (§1) One purpose of the following experiments was to compare the efficacy of 1% Oligomer 2, 0.5% Oligomer 2, and 5% vancomycin in the treatment of a fluoroquinolone-resistant, methicillin-resistant Staphylococcus aureus infection in the NZW rabbit keratitis model with or without intact corneal epithelia.
Nothing was done to the right eyes.
as §1, with “0.25%” for “1%”, “with and without 0.005% benzalkonium chloride,” for “0.5% Oligomer 2,”, “epithelia. The 0.005% benzalkonium chloride has been added to try to increase the penetration of 0.25% Oligomer 2 through the corneal epithelium.” for “epithelia.”
One purpose of the following experiments was to determine the efficacy of 0.25% Oligomer 4, with and without 200 μM Farnesol, and 200 μM Farnesol in the treatment of a fluoroquinolone-resistant and methicillin-resistant Staphylococcus aureus infection in the NZW rabbit keratitis model with or without intact corneal epithelia. The 200 μM Farnesol has been added to try to increase the efficacy and penetration of 0.25% Oligomer 4 through the corneal epithelium.

[2] = NZW rabbit keratitis model, clinical evaluation (Total Ocular Score); conditions: for Chemosis score / Conj. score / Corneal Edema score / Corneal Infiltrate score / Discharge score / Iritis score / Total Score: individual eyes, Ker-1, drops every 15 min, 19 doses; for Chemosis score / Conj. score / Corneal Edema score / Corneal Infiltrate score / Discharge score / Iritis score: scale 0 = Normal to 3.0 = Severe; for Total Score: sum of six signs; for Total Ocular Score, Mean / Total Ocular Score, Median / Total Ocular Score, TrMean: N=3
Protocol: Fifteen rabbits were received from Myrtles' Rabbitry, Thompson Station, TN. The clinical isolate of fluoroquinolone-resistant, methicillin-resistant (MRSA) Staphylococcus aureus (K950) was subcultured on 5% sheep blood agar and incubated at 37° C. in 6% CO2 overnight. The next morning, the MRSA strain was suspended in sterile trypticase soy broth to a 0.5 McFarland Standard, containing approximately 5×10^8 cfu/ml of bacteria. The absorbance of the suspension was measured at 650 nm using a Beckman DU-70 spectrophotometer. OD readings of 0.07 corresponded to 5×10^8 cfu/ml of bacteria. This concentration was appropriately diluted in sterile trypticase soy broth to provide the inoculum of approximately 1,000 (1.0×10^3) cfu/eye in 25 μl. Colony counts were performed on the inoculum to determine the actual cfu inoculated. Following general anesthesia with ketamine and xylazine and topical anesthesia with proparacaine and prior to bacterial inoculation in the left eyes, 6 mm areas of the corneal epithelia was removed centrally with an Amoils epithelial scrubber. Nothing was done to the right eyes. The 15 rabbits were then inoculated intrastromally in both eyes with 25 μl of the bacterial dilution of approximately 10^3 cfu/eye of the bacteria. The bacterial inoculation of the left eyes was directly under the epithelial defect created by the Amoils epithelial scrubber. The epithelia were removed in the left corneas in order to determine whether this layer of the cornea is a barrier for Oligomer 2 penetration when compared to the right cornea with an intact epithelium. A colony count was done on the inoculum to determine the actual cfu inoculated. The rabbits were immediately treated with analgesia in the form of and intramuscular injection of ketoprofen, 1.5 mg/kg. After 4 hours, the 15 rabbits were divided into 4 treatment groups and one untreated control group sacrificed at the onset of therapy. Both eyes of each rabbit of the treatment groups were treated with one 37 μl drop of the coded solutions or control Saline or 1 drop of vancomycin from its dropper bottle. The Oligomer 2 concentrations were masked and labeled as 1 and 2. The masked concentrations were 1% Oligomer 2 and 0.5% Oligomer 2 but the specific concentrations of solutions were not known to the lab workers who carried out the experiment. The vancomycin and control (Tris-Buffered Saline) were not masked.
Treatment was scheduled for every 15 minutes for 5 hours (21 total doses). However, PMX-1 and PMX-2 were exhausted after the 19th dose. Therefore, the actual treatment was 15 minutes for 4.5 hours (19 total doses). The 3 rabbits in group V were sacrificed 4 hours PI and large 9.5 mm buttons were removed from the corneas. These were placed in 1 ml of PBS and kept on ice. The corneal buttons were homogenized for 25 seconds on ice using the motorized homogenizer. After homogenization, colony counts were done on the homogenates using 5% sheep blood agar plates to determine the amount of bacteria contained in the corneas at the onset of therapy. Following the completion of therapy, the eyes were examined for clinical signs of infection. One hour after the final treatment, the treated rabbits (Groups I-IV) were sacrificed and large 9.5 mm buttons were removed from the corneas. These were placed in 1 ml of PBS and kept on ice. The corneal buttons were homogenized for 25 seconds on ice using the motorized homogenizer. After homogenization, colony counts were performed on the homogenates using 5% sheep blood agar plates to determine the amount of bacteria contained in the corneas after treatment. The next morning, the plates were counted and the number of cfu/eye of Staphylococcus aureus was determined for each cornea.
Fifteen rabbits were received from Myrtles' Rabbitry, Thompson Station, TN.

[3] = test system: Ciprofloxacin Susceptible (CS) S. aureus (CSSA); experiment: MIC of clinical ocular isolates (Example 1); format: cell-based; conditions: Staphylococcus aureus; CSSA clinical ocular isolates (n=27)
[4] = test system: Ciprofloxacin Resistant (CR) S. aureus (CRSA); experiment: MIC of clinical ocular isolates (Example 1); format: cell-based; conditions: Staphylococcus aureus; CRSA clinical ocular isolates (n=28)
CS S. epidermidis (CSSE) = experiment: MIC of clinical ocular isolates (Example 1); format: cell-based; conditions: Staphylococcus epidermidis; CSSE clinical ocular isolates (n=26)
CR S. epidermidis (CRSE) = experiment: MIC of clinical ocular isolates (Example 1); format: cell-based; conditions: Staphylococcus epidermidis; CRSE clinical ocular isolates (n=26)
St. pneumoniae (SP) = experiment: MIC of clinical ocular isolates (Example 1); format: cell-based; conditions: Streptococcus pneumoniae; SP clinical ocular isolates (n=27)
St. viridans group (SV) = experiment: MIC of clinical ocular isolates (Example 1); format: cell-based; conditions: Streptococcus viridans
Moraxella Species (MS) = experiment: MIC of clinical ocular isolates (Example 1); format: cell-based; conditions: MS clinical ocular isolates (n=25)
H. influenzae (HI) = experiment: MIC of clinical ocular isolates (Example 1); format: cell-based; conditions: Haemophilus influenzae; HI clinical ocular isolates (n=26)
P. aeruginosa (PA) = experiment: MIC of clinical ocular isolates (Example 1); format: cell-based; conditions: Pseudomonas aeruginosa; PA clinical ocular isolates (n=26)
Serratia marcescens (SM) = experiment: MIC of clinical ocular isolates (Example 1); format: cell-based; conditions: SM clinical ocular isolates (n=27)

SMILES: CN[C@H](CC(C)C)C(=O)N[C@H]1C(=O)N[C@@H](CC(N)=O)C(=O)N[C@H]2C(=O)N[C@H]3C(=O)N[C@H](C(=O)N[C@H](C(=O)O)c4cc(O)cc(O)c4-c4cc3ccc4O)[C@H](O)c3ccc(c(Cl)c3)Oc3cc2cc(c3O[C@@H]2O[C@H](CO)[C@@H](O)[C@H](O)[C@H]2O[C@H]2C[C@](C)(N)[C@H](O)[C@H](C)O2)Oc2ccc(cc2Cl)[C@H]1O [VAN]
- Corneal colony count, Mean ([1]; Abraded Epithelium): 2.674 Log10 CFU/ml
- Corneal colony count, Median ([1]; Abraded Epithelium): 2.845 Log10 CFU/ml
- Corneal colony count, TrMean ([1]; Abraded Epithelium): 2.674 Log10 CFU/ml
- Corneal colony count, log ([1]; Abraded Epithelium): 2.301 Log10 CFU/ml and 2.845 Log10 CFU/ml and 2.875 Log10 CFU/ml
- Corneal colony count ([1]; Abraded Epithelium): 200 CFU/ml and 700 CFU/ml and 750 CFU/ml
- Log10 CFU/ml, group comparison (Duncan Multiple Comparisons Test) ([1]; Abraded Epithelium): PMX-2 = VAN = PMX-1 < ONSET = CON
- Corneal colony count, Mean ([1]; Intact Epithelium): 2.7239 Log10 CFU/ml
- Corneal colony count, Median ([1]; Intact Epithelium): 2.7404 Log10 CFU/ml
- Corneal colony count, TrMean ([1]; Intact Epithelium): 2.7239 Log10 CFU/ml
- Corneal colony count, log ([1]; Intact Epithelium): 2.74 Log10 CFU/ml and 2.653 Log10 CFU/ml and 2.778 Log10 CFU/ml
- Corneal colony count ([1]; Intact Epithelium): 550 CFU/ml and 450 CFU/ml and 600 CFU/ml
- Log10 CFU/ml, group comparison (Duncan Multiple Comparisons Test) ([1]; Intact Epithelium): VAN < PMX-1 = PMX-2 = ONSET = CON
- Chemosis score ([2]; Abraded Epithelium (AE)): 3.0 and 2.5 (2×)
- Conj. score ([2]; Abraded Epithelium (AE)): 3.0 and 2.5 (2×)
- Corneal Edema score ([2]; Abraded Epithelium (AE)): 0.5 and 1.0 (2×)
- Corneal Infiltrate score ([2]; Abraded Epithelium (AE)): 0.5 and 0 (2×)
- Discharge score ([2]; Abraded Epithelium (AE)): 3.0 and 2.0 and 2.5
- Iritis score ([2]; Abraded Epithelium (AE)): 1.0 and 1.5 (2×)
- Total Score ([2]; Abraded Epithelium (AE)): 11.0 and 9.5 and 10.0
- Total Ocular Score, Mean ([2]; Abraded Epithelium): 10.167
- Total Ocular Score, Median ([2]; Abraded Epithelium): 10.000
- Total Ocular Score, TrMean ([2]; Abraded Epithelium): 10.167
- Total Ocular Score, group comparison (Duncan Multiple Comparisons Test) ([2]; IE and AE groups, P = 0.05): CON IE = CON AE < VAN AE = PMX-1AE = PMX-2AE = VAN IE < PMX-1 IE = PMX-2 IE
- Chemosis score ([2]; Intact Epithelium (IE)): 3.0
- Conj. score ([2]; Intact Epithelium (IE)): 2.5 and 3.0 (2×)
- Corneal Edema score ([2]; Intact Epithelium (IE)): 1.0
- Corneal Infiltrate score ([2]; Intact Epithelium (IE)): 0 (2×) and 0.5
- Discharge score ([2]; Intact Epithelium (IE)): 3.0 (2×) and 2.5
- Iritis score ([2]; Intact Epithelium (IE)): 2.0 (2×) and 1.0
- Total Score ([2]; Intact Epithelium (IE)): 11.5 and 12.0 and 11.0
- Total Ocular Score, Mean ([2]; Intact Epithelium): 11.500
- Total Ocular Score, Median ([2]; Intact Epithelium): 11.500
- Total Ocular Score, TrMean ([2]; Intact Epithelium): 11.500

SMILES: CC(C)(C)c1cc(NC(=O)CCCCNC(=N)N)c(SCCNC(=N)N)c(NC(=O)c2cc(C(=O)Nc3cc(C(C)(C)C)cc(NC(=O)CCCCNC(=N)N)c3SCCNC(=N)N)ncn2)c1 [Oligomer 1]
- MIC50 [3]: 0.125 µg/mL
- MIC90 [3]: 0.25 µg/mL
- MIC50 [4]: 0.25 µg/mL
- MIC90 [4]: 0.25 µg/mL
- MIC50 (CS S. epidermidis (CSSE)): 0.03 µg/mL
- MIC90 (CS S. epidermidis (CSSE)): 0.125 µg/mL
- MIC50 (CR S. epidermidis (CRSE)): 0.03 µg/mL
- MIC90 (CR S. epidermidis (CRSE)): 0.03 µg/mL
- MIC50 (St. pneumoniae (SP)): 0.5 µg/mL
- MIC90 (St. pneumoniae (SP)): 1 µg/mL
- MIC50 (St. viridans group (SV)): 4 µg/mL
- MIC90 (St. viridans group (SV)): 16 µg/mL
- MIC50 (Moraxella Species (MS)): 0.5 µg/mL
- MIC90 (Moraxella Species (MS)): 0.5 µg/mL
- MIC50 (H. influenzae (HI)): 16 µg/mL
- MIC90 (H. influenzae (HI)): 32 µg/mL
- MIC50 (P. aeruginosa (PA)): 4 µg/mL
- MIC90 (P. aeruginosa (PA)): 8 µg/mL
- MIC50 (Serratia marcescens (SM)): 16 µg/mL
- MIC90 (Serratia marcescens (SM)): 64 µg/mL
